Publication PMC8887546, “Design and Synthesis of Brain Penetrant Glycopeptide Analogues of PACAP With Neuroprotective Potential for Traumatic Brain Injury and Parkinsonism” (Frontiers in drug discovery, 2022)

What was measured:
[1] = tested on: Sprague Dawley rats, 6-OHDA lesion; experiment: Microglia morphology in substantia nigra, IBA1 skeleton analysis (study 2); type: in vivo, rat; settings: more severe (40%) lesion, treatment vs vehicle, n = 7
Method: Rats were treated with 2LS98Lac or saline (vehicle) as outlined in the Schemes in Figures 9A,B via intraperitoneal (i.p.) injection (15 mg/kg). All animals were made hemi-parkinsonian with unilateral, striatal 6-hydroxydopamine (Sigma Aldrich, St. Louis, MO) injections. After surgery, behavioral assessments were done at 2- and 4-weeks post-surgery. 24 h after the last test animals were either euthanized and whole brains were harvested for future biochemical analysis or perfused and brains collected for immunohistochemistry and stereological assessment of tyrosine hydroxylase-positive (TH+) cells remaining in the SNc. In study 1: n = 16 each group were included, and all underwent the behavioral analysis: n = 16, and for the stereology in the SNc, n = 8 each group was used. In study 2: n = 23 each group were included. […] In the 2LS98Lac group, one video at 4 weeks was lost, reducing n = 22 in this specific analysis, and for the stereology, 2 brains were damaged during processing and could not be included in the stereology of the SNc, therefore […]. For biochemical subanalyses, n = 8 each group. For the microglial morphology subanalysis n = 7 each group.
Three coronal brain sections that contained the substantia nigra (SN) were randomly chosen for each animal. For immunofluorescence of microglia free-floating brain sections were first blocked in 10% horse serum (Vector Laboratories, S-2000–20, Burlingame, CA) and buffer solution (0.01 M PBS, 0.05% Triton, and 0.04% NaN3) for 1 h followed by a 72 h incubation with primary antibodies as appropriate: rabbit anti-IBA1 at 1:1,000 (Wako, 019–19741, Madison, WI), mouse anti-TH at 1:2000 (R& D Systems, MAB7566, Minneapolis, MN). […] All incubation steps were performed at room temperature; washes between incubations were with 0.01 M PBS for 15 min. Vectashield (Vector Laboratories, H-1000) was used to coverslip mounted tissue.
Images were acquired on a confocal microscope (Zeiss NLO 880, San Diego, CA) in 3 fields of view within the SN of each intact and lesioned hemisphere using a ×40 objective (473.33 × 473.33 μm area). […] Threshold parameters were consistent for all images, and the percent area of IBA1 immunofluorescence was measured for each image. The number of cell somas was counted in the IBA1 channel, an approximation of the number of cells imaged in each frame, and all percent area data was divided by this cell count.
Ramified microglial morphology was quantified using an objective and computer-aided skeleton analysis method previously described in detail ([Young and Morrison, 2018]). […] Sampling averages were calculated for each animal within each region (intact SN and lesion SN) prior to statistical analyses. […]

[2] = tested on: Sprague Dawley rats, 6-OHDA lesion; experiment: Unbiased stereology of TH-positive neurons in SNc (study 2); type: in vivo, rat; settings: more severe (40%) lesion
Method: Rats were treated with 2LS98Lac or saline (vehicle) as outlined in the Schemes in Figures 9A,B via intraperitoneal (i.p.) injection (15 mg/kg). All animals were made hemi-parkinsonian with unilateral, striatal 6-hydroxydopamine (Sigma Aldrich, St. Louis, MO) injections. After surgery, behavioral assessments were done at 2- and 4-weeks post-surgery. 24 h after the last test animals were either euthanized and whole brains were harvested for future biochemical analysis or perfused and brains collected for immunohistochemistry and stereological assessment of tyrosine hydroxylase-positive (TH+) cells remaining in the SNc. In study 1: n = 16 each group were included, and all underwent the behavioral analysis: n = 16, and for the stereology in the SNc, n = 8 each group was used. In study 2: n = 23 each group were included. […]
Stereological probes were applied using a Zeiss Imager M2 microscope (Carl Zeiss, Jena, Germany) equipped with StereoInvestigator software (MBF Bioscience, VT, United States) according to previously published methods ([Corenblum et al., 2015]; [Anandhan et al., 2021]). Using the optical fractionator probe, cells were counted under the ×63 oil immersion objective by a blinded observer. TH+ cells were counted in sections 480 μm apart using a grid size of 170 × 100 μm and counting frame size of 75 × 75 μm. […]

In the case of `[2H]C([2H])([2H])C([2H])(C([2H])([2H])[2H])[C@]([2H])(NC(=O)[C@H](C)NC(=O)[C@H](C)NC(=O)[C@H](CC(C)C)NC(=O)[C@H](Cc1ccc(O)cc1)NC(=O)[C@H](CCCCN)NC(=O)[C@H](CCCCN)NC(=O)[C@@]([2H])(NC(=O)[C@H](C)NC(=O)[C@H](CC(C)C)NC(=O)[C@H](CCC(N)=O)NC(=O)[C@H](CCCCN)NC(=O)[C@H](CCCNC(=N)N)NC(=O)[C@H](Cc1ccc(O)cc1)NC(=O)[C@H](CCCNC(=N)N)NC(=O)[C@H](CO)NC(=O)[C@H](Cc1ccc(O)cc1)NC(=O)[C@H](CO)NC(=O)[C@H](CC(=O)O)NC(=O)[C@@H](NC(=O)[C@H](Cc1ccccc1)NC(=O)[C@@H](NC(=O)CNC(=O)[C@H](CC(=O)O)NC(=O)[C@H](CO)NC(=O)[C@@H](N)Cc1c[nH]cn1)[C@@H](C)CC)[C@@H](C)O)C([2H])(C([2H])([2H])[2H])C([2H])([2H])[2H])C(=O)N[C@@H](CC(C)C)C(=O)N[C@@H](CO[C@@H]1O[C@H](CO)[C@@H](O[C@@H]2O[C@H](CO)[C@H](O)[C@H](O)[C@H]2O)[C@H](O)[C@H]1O)C(N)=O` [Compound 2LS98Lac], the “% area IBA-1/cell on the lesioned side” value [1] is reported as “significant increase”, the “Microglial branches/cell on the lesioned side” value [1] is reported as “significant increase” and the “Microglial endpoints/cell on the lesioned side” value [1] is reported as “trend toward increase”. For the same compound, the “Microglial process length/cell on the lesioned side” value [1] was “significant increase”, the “Mean increase of nigral TH cells on the lesioned side vs vehicle” value ([2]; not significant (p = 0.2208)) was 850 cells and the “Nigral TH-cell count on the lesioned side” value ([2]; three injections 15 mg/kg i.p., mean, vehicle 8,391) was 9,244 cells.
